{
  "source": "patent US20220039386A1",
  "about": "“METHOD FOR CONTROLLING PESTS OF RAPESEED PLANTS” (BASF SE, priority 2018, published 2022)",
  "key": {"Phyllotreta striolata": {"tested_on": "Phyllotreta striolata", "assay": "Canola foliar treatment, striped flea beetle mortality", "assay_type": "in vivo", "experimental": "1. Canola-Striped Flea Beetle, Phyllotreta striolata:\nCanola foliar treatment: Before application, construction paper was placed at the base of each plant to catch spray solution and therefore preventing beetle contact with contaminated soil and pots (allowing only the plants to be treated). Canola seedlings were treated at the first true leaf stage in a spray chamber at 300 L/ha with a three nozzle (TX-6) flat boom. Plants were allowed to dry, paper was removed, and plants were transferred to a greenhouse to hold over night. At infest, three plants (replicates) per treatment were placed into a bucket. Twenty adult flea beetles (mix sex) were aspirated into a vial and placed in the center of the bucket. The container was closed and placed into a Percival at 25 C 50% RH. Mortality evaluation was made on 6 DAI."}, "Meligethes aeneus": {"tested_on": "Meligethes aeneus", "assay": "Oilseed rape inflorescence dip (foliar application), pollen beetle control", "assay_type": "in vivo", "experimental": "2. Oilseed Rape—Pollen Beetle, Meligethes aeneus:\nFoliar application: Test units consisted of a plastic cup with a hole in the bottom and a glass vial below that hole, containing irrigation water. Oil seed rape inflorescences were dipped into the treatment solutions and after drying placed inside the plastic cups. Each cup was sealed with a perforated, transparent lid. Ten adult pollen beetles, field collected, were added to each cup. Each treatment was replicated three times. Pollen beetle survival was assessed 3 days after application."}},
  "data": [
    {"smiles": "C[n+]1c([O-])c(-c2ccccc2)c(=O)n2c1SC[C@@H]2c1cnc(Cl)s1", "note": "[Compound I-R-1]", "values": [
      {"measurement": "mortality at 600 ppm", "setting": "Phyllotreta striolata; Phyllotreta striolata, in Brassica napus, 600 ppm, foliar spray 300 L/ha on canola seedlings at first true leaf, adult flea beetles, evaluation 6 DAI", "value": "≥ 65", "unit": "%"},
      {"measurement": "flea beetle control (summary in words)", "setting": "Phyllotreta striolata; canola foliar treatment, Table 1", "value": "good flea beetle control"},
      {"measurement": "Percent control (%) A03", "setting": "Meligethes aeneus; 72 g ai/ha, oil seed rape inflorescences dipped, field collected adult pollen beetles, assessed 3 days after application", "value": 47.8, "unit": "a %"},
      {"measurement": "efficacy against the adults of pollen beetle (summary in words)", "setting": "Meligethes aeneus; foliar application", "value": "good efficacy"}
    ]}
  ]
}
